This is an account of results in patent US20230084927A1, “GLUCOSE UPTAKE INHIBITORS AND USES THEREOF” (METABOMED LTD., priority 2019, published 2023).

Read-outs that look alike come from different tables or passages of the source.

Experiment [1] relates to SDH-KO-HRAS cells (SDHB-deficient). As to the kind of experiment: Cellular / differential toxicity assay (CellTiter-Glo, 3 days). Format: cell-based, murine. Particulars: toxicity, SDH-KO cells, 3 days, CellTiter-Glo, read-out: EC50 (uM) SDH-KO-HTAS-C17. In outline: (§1)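 Isogenic SDHB-deficient (HRAS-transformed SDH-KO) and SDH-WT cells grown in DMEM-F12 with 1 mM glutamine and 3% FBS, plated with compound (10-point dilution from 10 uM to 0.0065 uM or lower) for 3 days at 37 °C, 5% CO2. Viability by CellTiter-Glo luminescence; EC50 calculated.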

A further experiment has as its system SDH-WT cells. Described as above. The format is cell-based, murine. The settings on record: toxicity, SDH-WT cells, 3 days, CellTiter-Glo, read-out: EC50 (uM) SDH-WT. In outline:
as §1

As to `CC1(C)Cc2nc3sc4c(NCCc5ccc6[nH]cnc6c5)ncnc4c3c(C(=O)OCCCCCCCCCCCCCCCC(=O)O)c2CO1` [Compound 211], the EC50 in experiment [1] (Mus musculus, 72 h) lay within 3 to 10 µM; with SDH-WT cells (Mus musculus, 72 h), 3 to 10 µM.
In the case of `CC1(C)Cc2nc3sc4c(NCCc5ccc6[nH]cnc6c5)ncnc4c3c(C(=O)OCCCCCCCCCCCC(=O)O)c2CO1` [Compound 212], the EC50 in experiment [1] (Mus musculus, 72 h) fell in the range of 3 to 10 µM; in the experiment on SDH-WT cells (Mus musculus, 72 h) it was 3 to 10 µM.
Take `COCOCCOCCOCCOCc1c2c(nc3sc4c(NCCc5ccc6[nH]cnc6c5)ncnc4c13)CC(C)(C)OC2` [Compound 213]: the half-maximal effective concentration (EC50) was 1 to 3 µM in experiment [1] (Mus musculus, 72 h) and > 10 µM in the experiment on SDH-WT cells (Mus musculus, 72 h).
As for `COCCOCCOCCOCCOCCOCc1c2c(nc3sc4c(NCCc5ccc6[nH]cnc6c5)ncnc4c13)CC(C)(C)OC2` [Compound 214], the EC50 in experiment [1] (Mus musculus, 72 h) was 1 to 3 µM; in the experiment on SDH-WT cells (Mus musculus, 72 h), > 10 µM.
With `CCCCCCNc1nc(C)nc2c1sc1nc3c(cc12)COC(C)(C)C3` [Compound 215], the EC50 is > 10 µM in experiment [1] (Mus musculus, 72 h) and > 10 µM in the experiment with SDH-WT cells (Mus musculus, 72 h).
As to `CCCCCCNc1ncnc2c1sc1nc3c(cc12)COC(C)(C)C3` [Compound 216], the EC50 in experiment [1] (Mus musculus, 72 h) is > 10 µM; with SDH-WT cells (Mus musculus, 72 h), > 10 µM.
Take `CCCCNc1ncnc2c1sc1nc3c(cc12)COC(C)(C)C3` [Compound 217]: the EC50 in experiment [1] fell in the range of 1 to 3 µM; in the experiment with SDH-WT cells it was 3 to 10 µM.
For `CCN(CC)CCNc1ncnc2c1sc1nc3c(cc12)COC(C)(C)C3` [Compound 218], the EC50 was > 10 µM in experiment [1] (Mus musculus, 72 h) and > 10 µM in the experiment on SDH-WT cells (Mus musculus, 72 h).
For `CCC(C)Nc1nc(C)nc2c1sc1nc3c(cc12)COC(C)(C)C3` (stereo not drawn) [Compound 219], the concentration for a half-maximal effect (EC50) is 3 to 10 µM in experiment [1] (Mus musculus, 72 h) and > 10 µM in the experiment on SDH-WT cells (Mus musculus, 72 h).
Consider `Cc1nc(NCC(C)C)c2sc3nc4c(cc3c2n1)COC(C)(C)C4` [Compound 220], for which the EC50 in experiment [1] (Mus musculus, 72 h) is > 10 µM; in the experiment on SDH-WT cells (Mus musculus, 72 h), > 10 µM.
Consider `C=CCNc1ncnc2c1sc1nc3c(cc12)COC(C)(C)C3` [Compound 221], for which the EC50 in experiment [1] was > 10 µM; in the experiment on SDH-WT cells (Mus musculus, 72 h), > 10 µM.
`Cc1nc(NCCCO)c2sc3nc4c(cc3c2n1)COC(C)(C)C4` [Compound 222]: the EC50 in experiment [1] (Mus musculus, 72 h) is > 10 µM; in the experiment on SDH-WT cells (Mus musculus, 72 h), > 10 µM.
`Cc1nc(N2CCOCC2)c2sc3nc4c(cc3c2n1)COC(C)(C)C4` [Compound 223]: the EC50 in experiment [1] (Mus musculus, 72 h) was > 10 µM; with SDH-WT cells (Mus musculus, 72 h) it was > 10 µM.
Take `CC(C)CNc1ncnc2c1sc1nc3c(cc12)COC(C)(C)C3` [Compound 224]: the EC50 was > 10 µM in experiment [1] (Mus musculus, 72 h) and > 10 µM in the experiment with SDH-WT cells (Mus musculus, 72 h).
`Cc1nc(NCCN(C)C)c2sc3nc4c(cc3c2n1)COC(C)(C)C4` [Compound 225]: the concentration giving a half-maximal response (EC50) in experiment [1] (Mus musculus, 72 h) is > 10 µM; with SDH-WT cells (Mus musculus, 72 h) it was > 10 µM.
With `Cc1nc(NCCCN(C)C)c2sc3nc4c(cc3c2n1)COC(C)(C)C4` [Compound 226], the EC50 in experiment [1] (Mus musculus, 72 h) was > 10 µM; with SDH-WT cells (Mus musculus, 72 h), > 10 µM.
With `CN(C)CCNc1ncnc2c1sc1nc3c(cc12)COC(C)(C)C3` [Compound 227], the EC50 in experiment [1] (Mus musculus, 72 h) was > 10 µM; in the experiment with SDH-WT cells (Mus musculus, 72 h) it was > 10 µM.
For `CN(C)CCCNc1ncnc2c1sc1nc3c(cc12)COC(C)(C)C3` [Compound 228], the 50% effective concentration (EC50) was > 10 µM in experiment [1] (Mus musculus, 72 h) and > 10 µM in the experiment with SDH-WT cells (Mus musculus, 72 h).
In the case of `CCCCNc1nc(C)nc2c1sc1nc3c(cc12)COC(C)(C)C3` [Compound 229], the EC50 was 3 to 10 µM in experiment [1] (Mus musculus, 72 h) and > 10 µM in the experiment with SDH-WT cells (Mus musculus, 72 h).
Turning to `Cc1nc(NCCN2CCOCC2)c2sc3nc4c(cc3c2n1)COC(C)(C)C4` [Compound 230], the EC50 was > 10 µM in experiment [1] (Mus musculus, 72 h) and > 10 µM in the experiment with SDH-WT cells (Mus musculus, 72 h).
Consider `Cc1nc(NCC2CCCO2)c2sc3nc4c(cc3c2n1)COC(C)(C)C4` (stereo not drawn) [Compound 231], for which the EC50 in experiment [1] (Mus musculus, 72 h) is > 10 µM; with SDH-WT cells (Mus musculus, 72 h), > 10 µM.
As to `CC1(C)Cc2nc3sc4c(NCc5ccco5)ncnc4c3cc2CO1` [Compound 232], the EC50 in experiment [1] (Mus musculus, 72 h) is > 10 µM; in the experiment with SDH-WT cells (Mus musculus, 72 h), > 10 µM.
As for `Cc1nc(N2CCCCC2)c2sc3nc4c(cc3c2n1)COC(C)(C)C4` [Compound 233], the EC50 in experiment [1] (Mus musculus, 72 h) was > 10 µM; in the experiment with SDH-WT cells (Mus musculus, 72 h), > 10 µM.
`CCN(CC)CCNc1nc(C)nc2c1sc1nc3c(cc12)COC(C)(C)C3` [Compound 234]: the EC50 in experiment [1] (Mus musculus, 72 h) is > 10 µM; in the experiment on SDH-WT cells (Mus musculus, 72 h), > 10 µM.
